The record followed here is US12655173B2, “Hybrid amide derivatives of amphotericin B” (priority 2020, dated 2026).

Broadly, the MIC is the lowest concentration found to suppress growth.

Values after ≈ are worked out from the molar mass of the structure shown.

Series [1] has as its system EMFR-S678P, echinocandin resistant. Put plainly: MIC against azole and echinocandin resistant fungal strains (CLSI). It counts as cell-based. Particulars: read-out: MIC EMFR-S678P. The method, then: (§1) This experiment was performed following the standard CLSI protocol.
Series [2] concerns Af F16216, azole resistant (L98H + TR). Described as above. It counts as cell-based. Particulars: read-out: MIC Af F16216. The method, then:
as §1

Series [3] has as its system Af 3626 (ATCC strain). The series is described as above. It counts as cell-based. Particulars: read-out: MIC Af 3626. As for the experimental part: as §1
Series [4] concerns Af F7075, azole resistant (G54E). Described as above. It counts as cell-based. To be noted: read-out: MIC Af F7075. As for the experimental part: as §1
Series [5] concerns Af F16134, azole resistant (M220K). The series is described as above. The class given is cell-based. To be noted: read-out: MIC Af F16134. As for the experimental part: as §1
The subject of series [6] is Af F14946, azole resistant (G138C). The description is as above. The class given is cell-based. Particulars: read-out: MIC Af F14946. The method, then: as §1
For series [7], the system named is Af F12776, azole resistant (Y431C). Described as above. To be noted: read-out: MIC Af F12776. The class given is cell-based. The method, then:
as §1

Series [8] in a line: In vivo toxicity in murine model: mice alive / distress-free. Particulars: 45 mg/kg IV, 24 h.
Series [9] concerns CEA10 (clinical isolate). Kind of series: MIC against azole and echinocandin resistant fungal strains (CLSI). Particulars: read-out: MIC CEA10. The class given is cell-based, A. funigatus. The method, then:
as §1

Series [10] can be described thus: In vivo tolerance in mice: survival and distress. To be noted: tail vein, 24 h.

For the compound `CC[C@H](C)C[C@H](C)CCCCCCCCC(=O)N[C@H]1C[C@@H](O)[C@@H](NCCN)NC(=O)[C@@H]2[C@@H](O)CCN2C(=O)[C@H]([C@H](O)CCN)NC(=O)[C@H]([C@H](O)[C@@H](O)c2ccc(O)cc2)NC(=O)[C@@H]2C[C@@H](O)CN2C(=O)[C@H]([C@@H](C)O)NC1=O` [Caspofungin], the MIC in series [1] is more than 3.3 µM; in [2], 0.41 µM (≈ 0.448 µg/mL); in series [3], 0.41 µM (≈ 0.448 µg/mL); in series [4], 0.82 µM (≈ 0.897 µg/mL); in series [5] it was 0.21 µM (≈ 0.23 µg/mL).

As to `C[C@@H](c1ncncc1F)[C@](O)(Cn1cncn1)c1ccc(F)cc1F` [Voriconazole], the MIC in series [6] is more than 11.5 µM; in [2] it was more than 11.5 µM; in series [3] it was 0.72 µM (≈ 0.252 µg/mL); in series [7], more than 11.5 µM; in [4], 5.73 µM (≈ 2 µg/mL); in series [5] it was more than 11.5 µM.

Turning to `C[C@@H]1[C@H](O)[C@@H](C)/C=C/C=C/C=C/C=C/C=C/C=C/C=C/[C@H](O[C@@H]2O[C@H](C)[C@@H](O)[C@H](N)[C@H]2O)C[C@@H]2O[C@](O)(C[C@@H](O)C[C@@H](O)[C@H](O)CC[C@@H](O)C[C@@H](O)CC(=O)O[C@H]1C)C[C@H](O)[C@H]2C(=O)O` [C2′epiAmB], in series [8], the “# of mice alive” value is on record as 4/4 and the “# of mice distress-free” value was 4/4.

On to `CC[C@@H]([C@H](C)O)n1ncn(-c2ccc(N3CCN(c4ccc(OC[C@@H]5CO[C@@](Cn6cncn6)(c6ccc(F)cc6F)C5)cc4)CC3)cc2)c1=O` [Posaconazole], for which the MIC amounted to 1.43 µM (≈ 1 µg/mL) in [2] and 0.18 µM (≈ 0.126 µg/mL) in series [9].

For `C[C@H](CCC(=O)O)[C@H]1CC[C@H]2[C@@H]3CC[C@@H]4C[C@H](O)CC[C@]4(C)[C@H]3C[C@H](O)[C@]12C` [Deoxycholate], the Distressed in series [10] (Dose 1 mg/kg), in series [10] (Dose 4 mg/kg) and in [10] (Dose 45 mg/kg) was 0/4 throughout. In addition, the “Survival (alive/total)” value in series [10] (Dose 1 mg/kg), in series [10] (Dose 4 mg/kg) and in series [10] (Dose 45 mg/kg) was 4/4 throughout.
